The source of these data is PMC11052001, “A Novel IRAK4 Inhibitor DW18134 Ameliorates Peritonitis and Inflammatory Bowel Disease” (Molecules, 2024).

This assay has as its target T1, IRAK4 (Homo sapiens, UniProt Q9NWZ3).
T1 sequence (Q9NWZ3 1-460): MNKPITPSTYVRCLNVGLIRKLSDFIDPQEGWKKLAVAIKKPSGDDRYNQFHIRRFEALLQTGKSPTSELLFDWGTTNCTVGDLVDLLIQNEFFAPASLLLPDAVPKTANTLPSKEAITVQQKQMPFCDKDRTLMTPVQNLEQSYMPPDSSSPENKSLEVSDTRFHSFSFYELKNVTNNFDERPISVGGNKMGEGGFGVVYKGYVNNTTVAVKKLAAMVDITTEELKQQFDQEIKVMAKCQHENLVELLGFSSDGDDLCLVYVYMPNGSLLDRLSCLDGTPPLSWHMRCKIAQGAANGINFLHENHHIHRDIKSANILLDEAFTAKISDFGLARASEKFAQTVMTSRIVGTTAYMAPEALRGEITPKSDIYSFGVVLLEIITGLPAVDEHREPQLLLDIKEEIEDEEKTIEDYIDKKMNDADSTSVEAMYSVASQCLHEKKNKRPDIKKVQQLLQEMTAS
Description: enzymatic kinase activity assay. It counts as biochemical. The conditions noted are these: read-out: DW18134.

Structures are written as SMILES.

For `CC1(C)Cc2cc(NC(=O)c3coc(-c4ccnc(N)c4)n3)c(-c3ccncc3)cc2O1` [DW18134], the IC50 turned out to be 11.2 ± 2 nM.
